Data taken from PubChem BioAssay AID1259407 (Chemical Carcinogenesis Research Information System (CCRIS), 2018).
Calls of active or inactive are those of the source. The rule behind the calls is not given here.

Tested on: CCRIS mutagenicity, Ames/micronucleus/aberration tests
Assay: CCRIS mutagenicity studies
[1] = Test System: AMES SALMONELLA TYPHIMURIUM, Strain/Indicator: TA97, Metabolic Activation: HAMSTER, LIVER, S-9, AROCLOR 1254 (10%), Method: PREINCUBATION
[2] = Test System: AMES SALMONELLA TYPHIMURIUM, Strain/Indicator: TA97, Metabolic Activation: NONE, Method: PREINCUBATION
[3] = Test System: AMES SALMONELLA TYPHIMURIUM, Strain/Indicator: TA97, Metabolic Activation: RAT, LIVER, S-9, AROCLOR 1254 (10%), Method: PREINCUBATION
[4] = Test System: AMES SALMONELLA TYPHIMURIUM, Strain/Indicator: TA98, Metabolic Activation: HAMSTER, LIVER, S-9, AROCLOR 1254 (10%), Method: PREINCUBATION
[5] = Test System: AMES SALMONELLA TYPHIMURIUM, Strain/Indicator: TA98, Metabolic Activation: NONE, Method: PREINCUBATION
[6] = Test System: AMES SALMONELLA TYPHIMURIUM, Strain/Indicator: TA98, Metabolic Activation: NONE, Method: STANDARD PLATE
[7] = Test System: AMES SALMONELLA TYPHIMURIUM, Strain/Indicator: TA98, Metabolic Activation: RAT, LIVER, S-9, AROCLOR 1254 (10%), Method: PREINCUBATION
[8] = Test System: AMES SALMONELLA TYPHIMURIUM, Strain/Indicator: TA100, Metabolic Activation: HAMSTER, LIVER, S-9, AROCLOR 1254 (10%), Method: PREINCUBATION
[9] = Test System: AMES SALMONELLA TYPHIMURIUM, Strain/Indicator: TA100, Metabolic Activation: NONE, Method: PREINCUBATION
[10] = Test System: AMES SALMONELLA TYPHIMURIUM, Strain/Indicator: TA100, Metabolic Activation: NONE, Method: STANDARD PLATE
[11] = Test System: AMES SALMONELLA TYPHIMURIUM, Strain/Indicator: TA100, Metabolic Activation: RAT, LIVER, S-9, AROCLOR 1254 (10%), Method: PREINCUBATION
[12] = Test System: AMES SALMONELLA TYPHIMURIUM, Strain/Indicator: TA1535, Metabolic Activation: HAMSTER, LIVER, S-9, AROCLOR 1254 (10%), Method: PREINCUBATION
[13] = Test System: AMES SALMONELLA TYPHIMURIUM, Strain/Indicator: TA1535, Metabolic Activation: NONE, Method: PREINCUBATION
[14] = Test System: AMES SALMONELLA TYPHIMURIUM, Strain/Indicator: TA1535, Metabolic Activation: NONE, Method: STANDARD PLATE
[15] = Test System: AMES SALMONELLA TYPHIMURIUM, Strain/Indicator: TA1535, Metabolic Activation: RAT, LIVER, S-9, AROCLOR 1254 (10%), Method: PREINCUBATION
[16] = Test System: AMES SALMONELLA TYPHIMURIUM, Strain/Indicator: TA1537, Metabolic Activation: NONE, Method: STANDARD PLATE

CCN(CC)CCCC(C)Nc1c2ccc(Cl)cc2nc2ccc(OC)cc12 (stereo not drawn) was tested, and the mutagenic call [1] was “active; positive”, the mutagenic call [2] was “active; positive” and the mutagenic call [3] was “active; positive”. The mutagenic call [4] was “active; positive”, the mutagenic call [5] was “active; positive” and the mutagenic call [6] was “inactive; negative”. For the same compound, the mutagenic call (Test System: AMES SALMONELLA TYPHIMURIUM, Strain/Indicator: TA98, Metabolic Activation: RAT LIVER S-9, AROCLOR 1254 (10%), Method: STANDARD PLATE) was “active; positive”, the mutagenic call (Test System: AMES SALMONELLA TYPHIMURIUM, Strain/Indicator: TA98, Metabolic Activation: RAT LIVER S-9, Method: STANDARD PLATE) was “active; positive” and the mutagenic call [7] was “active; positive”. The mutagenic call [8] was “inactive; negative”, the mutagenic call [9] was “inactive; negative” and the mutagenic call [10] was “inactive; negative”. The mutagenic call (Test System: AMES SALMONELLA TYPHIMURIUM, Strain/Indicator: TA100, Metabolic Activation: RAT LIVER S-9, AROCLOR 1254 (10%), Method: STANDARD PLATE) was “inactive; negative”, the mutagenic call (Test System: AMES SALMONELLA TYPHIMURIUM, Strain/Indicator: TA100, Metabolic Activation: RAT LIVER S-9, Method: STANDARD PLATE) was “inactive; negative” and the mutagenic call [11] was “inactive; negative”. The mutagenic call [12] was “inactive; negative”, the mutagenic call [13] was “inactive; negative” and the mutagenic call [14] was “inactive; negative”. The mutagenic call (Test System: AMES SALMONELLA TYPHIMURIUM, Strain/Indicator: TA1535, Metabolic Activation: RAT LIVER S-9, AROCLOR 1254 (10%), Method: STANDARD PLATE) was “inactive; negative”, the mutagenic call [15] was “inactive; negative” and the mutagenic call [16] was “active; positive”. For the same compound, the mutagenic call (Test System: AMES SALMONELLA TYPHIMURIUM, Strain/Indicator: TA1537, Metabolic Activation: RAT LIVER S-9, AROCLOR 1254 (10%), Method: STANDARD PLATE) was “active; positive”, the mutagenic call (Test System: E. COLI, Strain/Indicator: WP2 UVRA, Metabolic Activation: NONE, Method: STANDARD PLATE) was “active; positive” and the mutagenic call (Test System: E. COLI, Strain/Indicator: WP2 UVRA, Metabolic Activation: RAT LIVER S-9, AROCLOR 1254 (10%), Method: STANDARD PLATE) was “inactive; negative”. The mutagenic call (Test System: MOUSE LYMPHOMA, Strain/Indicator: L5178Y(TK+/TK-), Metabolic Activation: NONE, Method: SUSPENSION/PLATE) was “active; positive” and the mutagenic call (Test System: MOUSE LYMPHOMA, Strain/Indicator: L5178Y(TK+/TK-), Metabolic Activation: RAT LIVER S-9, AROCLOR 1254 (25%), Method: SUSPENSION/PLATE) was “inactive; negative”.
Cc1cc([N+](=O)[O-])c(C)c2c1[nH]c1ccccc12 was tested, and the mutagenic call [6] was “active; positive”, the mutagenic call (Test System: AMES SALMONELLA TYPHIMURIUM, Strain/Indicator: TA98, Metabolic Activation: RAT LIVER S-9, AROCLOR 1254, Method: STANDARD PLATE) was “active; positive” and the mutagenic call [10] was “inactive; negative”. For the same compound, the mutagenic call (Test System: AMES SALMONELLA TYPHIMURIUM, Strain/Indicator: TA100, Metabolic Activation: RAT LIVER S-9, AROCLOR 1254, Method: STANDARD PLATE) was “inactive; negative”, the mutagenic call [16] was “inactive; negative” and the mutagenic call (Test System: AMES SALMONELLA TYPHIMURIUM, Strain/Indicator: TA1537, Metabolic Activation: RAT LIVER S-9, AROCLOR 1254, Method: STANDARD PLATE) was “active; positive”. For the same compound, the mutagenic call (Test System: AMES SALMONELLA TYPHIMURIUM, Strain/Indicator: TA1977, Metabolic Activation: NONE, Method: STANDARD PLATE) was “active; positive” and the mutagenic call (Test System: AMES SALMONELLA TYPHIMURIUM, Strain/Indicator: TA1977, Metabolic Activation: RAT LIVER S-9, AROCLOR 1254, Method: STANDARD PLATE) was “active; positive”.
With OC(CCl)CCl the mutagenic call [1] was “active; positive”, the mutagenic call [2] was “inactive; negative” and the mutagenic call [3] was “inactive; negative”. For the same compound, the mutagenic call [4] was “active; positive”, the mutagenic call [5] was “inactive; negative” and the mutagenic call [7] was “inactive; negative”. The mutagenic call (Test System: AMES SALMONELLA TYPHIMURIUM, Strain/Indicator: TA100, Metabolic Activation: ADH AND NAD+ (5 OR 50 µL), Method: PREINCUBATION) was “active; positive”, the mutagenic call [8] was “active; positive” and the mutagenic call (Test System: AMES SALMONELLA TYPHIMURIUM, Strain/Indicator: TA100, Metabolic Activation: MOUSE, LIVER, S-9, PHENOBARBITAL, Method: STANDARD PLATE) was “active; positive”. For the same compound, the mutagenic call [9] was “active; positive”, the mutagenic call [10] was “active; positive” and the mutagenic call [11] was “active; positive”. The mutagenic call (Test System: AMES SALMONELLA TYPHIMURIUM, Strain/Indicator: TA100, Metabolic Activation: RAT, LIVER, S-9, AROCLOR 1254 (NAD+), Method: PREINCUBATION) was “active; positive”, the mutagenic call (Test System: AMES SALMONELLA TYPHIMURIUM, Strain/Indicator: TA100, Metabolic Activation: RAT, LIVER, S-9, AROCLOR 1254 (NADP+), Method: PREINCUBATION) was “active; positive” and the mutagenic call (Test System: AMES SALMONELLA TYPHIMURIUM, Strain/Indicator: TA100, Metabolic Activation: RAT, LIVER, S-9, PCB, Method: STANDARD PLATE) was “active; positive”. The mutagenic call (Test System: AMES SALMONELLA TYPHIMURIUM, Strain/Indicator: TA100, Metabolic Activation: RAT, LIVER, S-9, PHENOBARBITAL, Method: STANDARD PLATE) was “active; positive”, the mutagenic call (Test System: AMES SALMONELLA TYPHIMURIUM, Strain/Indicator: TA1535, Metabolic Activation: ADH AND NAD+ (50 µL), Method: PREINCUBATION) was “active; positive” and the mutagenic call [12] was “active; positive”. The mutagenic call [13] was “active; positive”, the mutagenic call [14] was “active; positive” and the mutagenic call [15] was “active; positive”. For the same compound, the mutagenic call (Test System: AMES SALMONELLA TYPHIMURIUM, Strain/Indicator: TA1535, Metabolic Activation: RAT, LIVER, S-9, AROCLOR 1254 (ADH AND NAD+), Method: PREINCUBATION) was “active; positive”, the mutagenic call (Test System: AMES SALMONELLA TYPHIMURIUM, Strain/Indicator: TA1535, Metabolic Activation: RAT, LIVER, S-9, AROCLOR 1254 (NADP+), Method: PREINCUBATION) was “active; positive” and the mutagenic call (Test System: AMES SALMONELLA TYPHIMURIUM, Strain/Indicator: TA1535, Metabolic Activation: RAT, LIVER, S-9, PCB, AROCLOR 1254, Method: STANDARD PLATE) was “active; positive”.
